One data set deals with 4T1. The data set can be described thus: Cytotoxicity against mouse 4T1 cells assessed as reduction in cell viability incubated for 24 hrs by CCK-8 assay. The format is functional, cell-based. To be noted: 4T1, 24 h.
In data set [1] the target is Quadruplex DNA. The data set can be described thus: Binding affinity to 3-terminal mt6363 DNA (unknown origin) assessed as dissociation constant by TAMRA-labeled G4 quenching assay. The format is nucleic-acid assay.
A short description of data set [2]: Cytotoxicity against human MCF-10A assessed as cell growth inhibition incubated for 24 hrs by CCK-8 assay. The class given is toxicity, cell-based. The note with it: MCF-10A cells.
Data set [3] concerns the target Quadruplex DNA. The data set can be described thus: Binding affinity to 5-terminal mt6363 DNA (unknown origin) assessed as dissociation constant by TAMRA-labeled G4 quenching assay. The class given is nucleic-acid assay.
A further data set concerns MDA-MB-231. The data set can be described thus: Cytotoxicity against human MDA-MB-231 cells assessed as reduction in cell viability incubated for 24 hrs by CCK-8 assay. The class given is functional, cell-based. The note with it: MDA-MB-231, 24 h. A general note: Tetrazolium dyes change colour on reduction, which living cells bring about.
Another data set deals with Mus musculus. The data set can be described thus: Immunostimulatory activity in female BALB/c mouse implanted with mouse 4T1 cells assessed as increase in CD8+ T cells in spleen 2.5 mg/kg, iv by flow cytometry. The class given is functional, organism-based. On the technique in general: Flow cytometry measures light scatter and fluorescence of single cells or particles in a stream.

Calls of active or inactive are those of the source. The rule behind the calls is not given here.

Broadly, the IC50 is the concentration needed to halve the response being measured. Usually Kd stands for the constant that tells how readily two partners part at equilibrium. Consider `COc1ccc(N(c2ccc(/C=C/c3ccc4ccccc4[n+]3C)cc2)c2ccc(OC)cc2)cc1`, for which the IC50 in the data set on 4T1 turned out to be 9.9 µM; with MDA-MB-231, 5.4 µM. Further, the figures for the Kd on Quadruplex DNA [1] and at Quadruplex DNA [3] were 3.2 µM and 9 µM, respectively. The IC50 at 24 h in data set [2] is 39.4 µM.
The matching figures for `C[n+]1c(/C=C/c2ccc(N(c3ccccc3)c3ccccc3)cc2)ccc2ccccc21`: 9.6 µM, 3.4 µM, 5 µM, 5.5 µM and 38 µM.
In the same order, the values of `C[N+]1=C(/C=C/c2ccc(N(c3ccccc3)c3ccccc3)cc2)C(C)(C)c2c1ccc1ccccc21` are 4.3 µM, 2.8 µM, 1.1 µM, 1.4 µM and 7 µM.
The matching figures for `C[N+]1=C(/C=C/c2ccc(N(c3ccccc3)c3ccccc3)cc2)C(C)(C)c2ccccc21`: 4.8 µM, 2.6 µM, 6.3 µM, 7.3 µM and 5 µM.
For the compound `COc1cccc2c1C(=O)c1c(O)c3c(c(O)c1C2=O)C[C@@](O)(C(=O)CO)C[C@@H]3O[C@H]1C[C@H](N)[C@H](O)[C@H](C)O1`, in the data set on Mus musculus, the result was Active.
On to `COc1ccc(N(c2ccc(/C=C/C3=[N+](C)c4ccccc4C3(C)C)cc2)c2ccc(OC)cc2)cc1`, for which the IC50 with 4T1 stood at 3.5 µM; in the data set with MDA-MB-231 it was 4 µM. Moreover, the Kd came to 2.1 µM on Quadruplex DNA [1] and 4.3 µM on Quadruplex DNA [3]. For the same compound, the IC50 at 24 h in data set [2] worked out at 8.5 µM.

The values above are taken from ChEMBL document CHEMBL6074620, “Discovery of a triphenylamine-based ligand that targets mitochondrial DNA G-quadruplexes and activates the cGAS-STING immunomodulatory pathway” (Eur J Med Chem, 2024).
